Experimental data published in patent US20060247227A1, “Substituted piperidines as histamine h3 receptor ligands” (priority 2003, published 2006).
Structures can show the parent of a compound that is named as a salt.

What follows are compounds tested against T1, histamine H3 receptor (Homo sapiens, UniProt Q9Y5N1) (assay: Histamine H3 functional antagonist assay ([35S]GTPγS, SPA, membranes of CHO K1 cells expressing the receptor)). Details: histamine-stimulated GTPγS binding, membranes with human H3.
T1 construct: expressed in transfected cells; host or cells: CHO K1 cells carrying pSwitch, transfected with pGeneH3 and induced with mifepristone; clone 3H3; membranes
Assay type: biochemical
Text: A membrane preparation containing histamine H3 receptors may be prepared in accordance with the following procedures:
(i) Generation of Histamine H3 Cell Line
DNA encoding the human histamine H3 gene (Huvar, A. et al. (1999) Mol. Pharmacol. 55(6), 1101-1107) was cloned into a holding vector, pCDNA3.1 TOPO (InVitrogen) and its cDNA was isolated from this vector by restriction digestion of plasmid DNA with the enzymes BamH1 and Not-1 and ligated into the inducible expression vector pGene (InVitrogen) digested with the same enzymes. The GeneSwitch™ system (a system where in transgene expression is switched off in the absence of an inducer and switched on in the presence of an inducer) was performed as described in U.S. Pat. Nos. 5,364,791; 5,874,534; and 5,935,934. Ligated DNA was transformed into competent DH5α E. coli host bacterial cells and plated onto Luria Broth (LB) agar containing Zeocin™ (an antibiotic which allows the selection of cells expressing the sh ble gene which is present on pGene and pSwitch) at 50 μg ml^−1. Colonies containing the re-ligated plasmid were identified by restriction analysis. DNA for transfection into mammalian cells was prepared from 250 ml cultures of the host bacterium containing the pGeneH3 plasmid and isolated using a DNA preparation kit (Qiagen Midi-Prep) as per manufacturers guidelines (Qiagen).
CHO K1 cells previously transfected with the pSwitch regulatory plasmid (InVitrogen) were seeded at 2×10e6cells per T75 flask in Complete Medium, containing Hams F12 (GIBCOBRL, Life Technologies) medium supplemented with 10% v/v dialysed foetal bovine serum, L-glutamine, and hygromycin ([…]), 24 hours prior to use. Plasmid DNA was transfected into the cells using Lipofectamine plus according to the manufacturers guidelines (InVitrogen). 48 hours post transfection cells were placed into complete medium supplemented with […] Zeocin™.
10-14 days post selection 10 nM Mifepristone (InVitrogen), was added to the culture medium to induce the expression of the receptor. 18 hours post induction cells were detached from the flask using ethylenediamine tetra-acetic acid (EDTA; 1:5000; InVitrogen), following several washes with phosphate buffered saline pH 7.4and resuspended in Sorting Medium containing Minimum Essential Medium (MEM), without phenol red, and supplemented with Earles salts and 3% Foetal Clone II (Hyclone). Approximately 1×10e7 cells were examined for receptor expression by staining with a rabbit polyclonal antibody, 4a, raised against the N-terminal domain of the histamine H3 receptor, incubated on ice for 60 minutes, followed by two washes in sorting medium. Receptor bound antibody was detected by incubation of the cells for 60 minutes on ice with a goat anti rabbit antibody, conjugated with Alexa 488 fluorescence marker (Molecular Probes). Following two further washes with Sorting Medium, cells were filtered through a 50 μm Filcon™ (BD Biosciences) and then analysed on a FACS Vantage SE Flow Cytometer fitted with an Automatic Cell Deposition Unit. Control cells were non-induced cells treated in a similar manner. Positively stained cells were sorted as single cells into 96-well plates, containing Complete Medium containing 500 μg ml^−1 Zeocin™ and allowed to expand before reanalysis for receptor expression via antibody and ligand binding studies. One clone, 3H3, was selected for membrane preparation.
(ii) Membrane Preparation from Cultured Cells
All steps of the protocol are carried out at 4° C. and with pre-cooled reagents. The cell pellet is resuspended in 10 volumes of buffer A2 containing 50 mM N-2-hydroxyethylpiperazine-N′-2-ethanesulfonic acid (HEPES) (pH 7.40) supplemented with […] leupeptin (acetyl-leucyl-leucyl-arginal; Sigma L2884), 25 μg/ml bacitracin (Sigma B0125), 1 mM ethylenediamine tetra-acetic acid (EDTA), 1 mM phenylmethylsulfonyl fluoride (PMSF) and 2×10e-6M pepstain A (Sigma). […]

T1 sequence (Q9Y5N1 whole entry): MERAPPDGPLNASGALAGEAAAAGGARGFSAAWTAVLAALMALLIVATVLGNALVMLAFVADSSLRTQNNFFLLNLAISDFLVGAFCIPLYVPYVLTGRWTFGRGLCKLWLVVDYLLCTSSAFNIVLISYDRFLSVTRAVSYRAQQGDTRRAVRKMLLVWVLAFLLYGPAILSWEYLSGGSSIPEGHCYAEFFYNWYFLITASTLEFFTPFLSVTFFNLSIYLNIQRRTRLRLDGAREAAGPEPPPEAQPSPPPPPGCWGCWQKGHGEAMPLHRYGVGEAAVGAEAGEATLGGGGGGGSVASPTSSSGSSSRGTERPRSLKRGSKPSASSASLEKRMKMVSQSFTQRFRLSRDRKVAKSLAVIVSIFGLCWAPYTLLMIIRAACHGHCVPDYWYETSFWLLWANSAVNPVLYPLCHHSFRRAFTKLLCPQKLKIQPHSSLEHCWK

Row | Ki | SMILES
1 | ≤ 1 nM | CC(=O)c1ccc(N2CCC(OC3CCN(C4CCC4)CC3)CC2)nc1 [Example E93, 1-(6-{4-[(1-Cyclobutyl-4-piperidinyl)oxy]-1-piperidinyl}-3-pyridinyl)ethanone]
2 | ≤ 1 nM | Cc1noc(-c2ccc(N3CCC(OC4CCN(C(C)C)CC4)CC3)c(F)c2)n1 [Example E112, 1-[2-Fluoro-4-(3-methyl-1,2,4-oxadiazol-5-yl)phenyl]-4-{[1-(1-methylethyl)-4-piperidinyl]oxy}piperidine hydrochloride]
3 | ≤ 1 nM | Cc1ncc(-c2ccc(N3CCC(OC4CCN(C5CCC5)CC4)CC3)cc2)o1 [Example E22]
4 | ≤ 1 nM | FC(F)(F)c1ccc(N2CCC(OC3CCN(C4CCC4)CC3)CC2)cn1 [Example E49, 5-{4-[(1-Cyclobutyl-4-piperidinyl)oxy]-1-piperidinyl}-2-(trifluoromethyl)pyridine hydrochloride]
5 | ≤ 1 nM | CC(C)N1CCC(OC2CCN(c3cnc(C(=O)NC4CCC4)cn3)CC2)CC1 [Example E79]
6 | < 10 nM | CC(C)N1CCC(OC2CCN(c3ccc(C(F)(F)F)nn3)CC2)CC1 [Example E83, 3-(4-{[1-(1-Methylethyl)-4-piperidinyl]oxy}-1-piperidinyl)-6-(trifluoromethyl)pyridazine]
7 | < 10 nM | CC(C)N1CCC(OC2CCN(c3ccc(-c4ncco4)cc3)CC2)CC1 [Example E19]
8 | ≤ 1 nM | Cc1nc(-c2ccc(N3CCC(OC4CCN(C5CCC5)CC4)CC3)cc2)co1 [Example E16, 1-Cyclobutyl-4-({1-[4-(2-methyl-1,3-oxazol-4-yl)phenyl]-4-piperidinyl}oxy)piperidine hydrochloride]
9 | ≤ 1 nM | CC(C)N1CCC(OC2CCN(c3ccc(C#N)nc3)CC2)CC1 [Example E80, 5-(4-{[1-(1-Methylethyl)-4-piperidinyl]oxy)-1-piperidinyl)-2-pyridinecarbonitrile hydrochloride]
10 | ≤ 1 nM | FC(F)(F)c1cnc(N2CCC(OC3CCN(C4CCC4)CC3)CC2)cn1 [Example E84, 2-{4-[(1-Cyclobutyl-4-piperidinyl)oxy]-1-piperidinyl}-5-(trifluoromethyl)pyrazine hydrochloride]
11 | ≤ 1 nM | Cc1ccc2cc(N3CCC(OC4CCN(C5CCC5)CC4)CC3)ccc2n1 [Example E94, 6-{4-[(1-Cyclobutyl-4-piperidinyl)oxy]-1-piperidinyl}-2-methylquinoline hydrochloride]
12 | ≤ 1 nM | CC(C)N1CCC(OC2CCN(c3ccc(-c4nnc(-c5ccccc5)o4)cc3)CC2)CC1 [Example E26]
13 | < 10 nM | CNC(=O)c1cccc(N2CCC(OC3CCN(C(C)C)CC3)CC2)n1 [Example E58]
14 | < 0.316 nM | CC(=O)c1ccc(N2CCC(OC3CCN(C4CCC4)CC3)CC2)cc1 [Example E48, 1-(4-{4-[(1-Cyclobutyl-4-piperidinyl)oxy]-1-piperidinyl}phenyl)ethanone hydrochloride]
15 | ≤ 1 nM | N#Cc1ccc(N2CCC(OC3CCN(C4CCC4)CC3)CC2)cc1 [Example E3, 4-{4-[(1-Cyclobutyl-4-piperidinyl)oxy]-1-piperidinyl}benzonitrile hydrochloride]
16 | < 10 nM | CC(=O)c1ccc(N2CCC(OC3CCN(CC4CC4)CC3)CC2)cc1 [Example E103, 1-[4-(4-{[1-(Cyclopropylmethyl)-4-piperidinyl]oxy}-1-piperidinyl)phenyl]ethanone]
17 | ≤ 1 nM | CCCNC(=O)c1ccc(N2CCC(OC3CCN(C(C)C)CC3)CC2)cn1 [Example E41]
18 | ≤ 1 nM | O=C(c1ccc(N2CCC(OC3CCN(C4CCC4)CC3)CC2)cc1)C1CC1 [Example E91]
19 | ≤ 1 nM | CCC(=O)c1ccc(N2CCC(OC3CCN(C4CCC4)CC3)CC2)cc1 [Example E90, 1-(4-{4-[(1-Cyclobutyl-4-piperidinyl)oxy]-1-piperidinyl}phenyl)-1-propanone]
20 | ≤ 1 nM | O=C(NCCCCl)c1ccc(N2CCC(OC3CCN(C4CCC4)CC3)CC2)cc1 [Example E15, N-(3-Chloropropyl)-4-{4-[(1-cyclobutyl-4-piperidinyl)oxy]-1-piperidinyl}benzamide hydrochloride]
21 | ≤ 1 nM | O=C(c1ccc(N2CCC(OC3CCN(C4CCC4)CC3)CC2)cc1)N1CCOCC1 [Example E5, 4-[(4-{4-[(1-Cyclobutyl-4-piperidinyl)oxy]-1-piperidinyl}phenyl)carbonyl]morpholine hydrochloride]

Row | Ki | SMILES
22 | ≤ 1 nM | CC(C)N1CCC(OC2CCN(c3ccc(C(=O)NC4CCC4)nc3)CC2)CC1 [Example E105, N-Cyclobutyl-5-(4-{[1-(1-methylethyl)-4-piperidinyl]oxy}-1-piperidinyl)-2-pyridinecarboxamide]
23 | ≤ 1 nM | CC(C)NC(=O)c1cnc(N2CCC(OC3CCN(C(C)C)CC3)CC2)cn1 [Example E78]
24 | < 10 nM | Cc1nc(-c2ccc(N3CCC(OC4CCN(C(C)C)CC4)CC3)cc2)co1 [Example E18]
25 | < 0.316 nM | Cc1noc(-c2ccc(N3CCC(OC4CCN(C(C)C)CC4)CC3)cc2)n1 [Example E17, 1-(1-Methylethyl)-4-({1-[4-(3-methyl-1,2,4-oxadiazol-5-yl)phenyl]-4-piperidinyl}oxy)piperidine hydrochloride]
26 | ≤ 1 nM | CC(C)N1CCC(OC2CCN(c3ccc(C(=O)N4CCCCC4)nc3)CC2)CC1 [Example E34]
27 | ≤ 1 nM | CCCNC(=O)c1cnc(N2CCC(OC3CCN(C4CCC4)CC3)CC2)cn1 [Example E72]
28 | < 10 nM | CN(C)C(=O)c1cccc(N2CCC(OC3CCN(C4CCC4)CC3)CC2)n1 [Example E63]
29 | ≤ 1 nM | CC(C)NC(=O)c1cnc(N2CCC(OC3CCN(C4CCC4)CC3)CC2)cn1 [Example E73]
30 | ≤ 1 nM | CC(C)N1CCC(OC2CCN(c3ccc(C(=O)N4CCCC4)cc3)CC2)CC1 [Example E10]
31 | ≤ 1 nM | O=C(c1ccc(N2CCC(OC3CCN(C4CCC4)CC3)CC2)cn1)N1CCOCC1 [Example E37]
32 | ≤ 1 nM | CNC(=O)c1cnc(N2CCC(OC3CCN(C(C)C)CC3)CC2)cn1 [Example E75]
33 | ≤ 1 nM | CC(C)(C)OC(=O)c1ccc(N2CCC(OC3CCN(C4CCC4)CC3)CC2)cn1 [Example E96, 1,1-Dimethylethyl 5-{4-[(1-cyclobutyl-4-piperidinyl)oxy]-1-piperidinyl}-2-pyridinecarboxylate]
34 | ≤ 1 nM | CC(C)N1CCC(OC2CCN(c3ccc(C(=O)N4CCOCC4)cc3)CC2)CC1 [Example E7]
35 | ≤ 1 nM | O=C(NC1CCC1)c1cnc(N2CCC(OC3CCN(C4CCC4)CC3)CC2)cn1 [Example E74]
36 | < 10 nM | CC(C)N1CCC(OC2CCN(c3ccc(C(=O)N(C)C)cn3)CC2)CC1 [Example E51]
37 | ≤ 1 nM | CN(C)C(=O)c1ccc(N2CCC(OC3CCN(C4CCC4)CC3)CC2)cc1 [Example E13]
38 | < 10 nM | CC(C)N1CCC(OC2CCN(c3cccc(C(=O)N4CCOCC4)n3)CC2)CC1 [Example E61]
39 | ≤ 1 nM | CC(C)N1CCC(OC2CCN(c3cnc(C(F)(F)F)nc3)CC2)CC1 [Example E89, 5-(4-{[1-(1-Methylethyl)-4-piperidinyl]oxy}-1 piperidinyl)-2-(trifluoromethyl) pyrimidine]
40 | < 0.316 nM | FC(F)(F)c1ncc(N2CCC(OC3CCN(C4CCC4)CC3)CC2)cn1 [Example E88, 5-{4-[(1-Cyclobutyl-4-piperidinyl)oxy]-1-piperidinyl}-2-(trifluoromethyl)pyrimidine]
41 | < 10 nM | O=C(c1cccc(N2CCC(OC3CCN(C4CCC4)CC3)CC2)n1)N1CCOCC1 [Example E65]
